Laboratory results taken from ChEMBL document CHEMBL1201862, “PubChem BioAssay data set” (2004).
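Cultured in 96-well plates, cells were exposed to test compound for 48 hours across five concentrations. At the GI50, growth is halved.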 Active and inactive are the calls of the source. No stated cut-off is given here; in the data, active = GI50 up to about 1.1 µM and inactive = higher. Where a SMILES comes first, the peptide text is derived from it. [ ]: non-standard residue; d: D form. The star is where a group is joined. Cbz = O=C(OCc1ccccc1)*; Aib = CC(C)(N)C(=O)O; OBn = c1ccc(CO*)cc1

Key:
Assay in all cases: growth of human tumour cells (NCI), 48 h
[1] = system: SF-268
[2] = system: SR
[3] = system: A498
[4] = system: SF-295
[5] = system: IGROV-1
[6] = system: TK-10
[7] = system: HCT-15
[8] = system: NCI-H23
[9] = system: HOP-62
[10] = system: UO-31
[11] = system: NCI-H522
[12] = system: BT-549
[13] = system: SF-539
[14] = system: OVCAR-8
[15] = system: Malme-3M
[16] = system: UACC-257
[17] = system: LOX IMVI
[18] = system: Hs-578T
[19] = system: SNB-75

| SMILES | GI50 [1] | GI50 [2] | GI50 [3] | GI50 [4] | GI50 [5] | GI50 [6] | GI50 [7] | GI50 [8] | GI50 [9] | GI50 [10] | GI50 [11] | GI50 [12] | GI50 [13] | GI50 [14] | GI50 [15] | GI50 [16] | GI50 [17] | GI50 [18] | GI50 [19] |
| --- | --- | --- | --- | --- | --- | --- | --- | --- | --- | --- | --- | --- | --- | --- | --- | --- | --- | --- | --- |
| CCOC(=O)c1sc2nc(SC)nc(Nc3ccc4c(c3)OCCCO4)c2c1N | 20.8 µM (inactive) | 16.7 µM (inactive) | 26.7 µM (inactive) | 8.95 µM (inactive) | > 100 µM (inactive) | 40.6 µM (inactive) | 10.9 µM | 5.92 µM (inactive) | 20.1 µM (inactive) | 85.1 µM (inactive) | 3.3 µM (inactive) | 17.5 µM (inactive) | 14.3 µM (inactive) | 11.4 µM (inactive) | 16.7 µM (inactive) | 7.82 µM (inactive) | 34.8 µM (inactive) |  |  |
| c1cncc(C(Nc2cccc3cccnc23)Nc2cccc3cccnc23)c1 | 50.5 µM (inactive) |  |  | > 100 µM (inactive) | > 100 µM (inactive) | > 100 µM (inactive) | > 100 µM | > 100 µM (inactive) | > 100 µM (inactive) | 83.8 µM (inactive) | 28.8 µM (inactive) | > 100 µM (inactive) | > 100 µM (inactive) | > 100 µM (inactive) |  | > 100 µM (inactive) | > 100 µM (inactive) | > 100 µM (inactive) | 37.8 µM (inactive) |
| C/N=C/N(C)c1c2ccccc2nc2ccccc12 | > 100 µM (inactive) | > 100 µM (inactive) | > 100 µM (inactive) | > 100 µM (inactive) | > 100 µM (inactive) | > 100 µM (inactive) | > 100 µM | > 100 µM (inactive) | > 100 µM (inactive) | 11.6 µM (inactive) | > 100 µM (inactive) |  | > 100 µM (inactive) | > 100 µM (inactive) | > 100 µM (inactive) | > 100 µM (inactive) | > 100 µM (inactive) | > 100 µM (inactive) | 90.6 µM (inactive) |
| COc1ccc2c(C=O)c3n(c(=O)c2c1OC)CCc1cc2c(cc1-3)OCO2 | > 100 µM (inactive) |  | > 100 µM (inactive) | 46 µM (inactive) | 56.6 µM (inactive) | 96.8 µM (inactive) | 27.7 µM | 27.2 µM (inactive) | > 100 µM (inactive) | 51.8 µM (inactive) | 30.4 µM (inactive) | 18.9 µM (inactive) | > 100 µM (inactive) | 23.4 µM (inactive) | 80 µM (inactive) | 32.2 µM (inactive) |  | > 100 µM (inactive) | 18.9 µM (inactive) |
| CC(NC(=O)C(C)(C)NC(=O)C(CC(=O)OCc1ccccc1)NC(=O)OCc1ccccc1)C(N)=O (stereo not drawn) (Cbz-Asp(OBn)-[Aib]-Ala-NH2; configuration not given here) | > 100 µM (inactive) | > 100 µM (inactive) |  | 43 µM (inactive) | > 100 µM (inactive) | > 100 µM (inactive) | > 100 µM | > 100 µM (inactive) | > 100 µM (inactive) | > 100 µM (inactive) | > 100 µM (inactive) | > 100 µM (inactive) | > 100 µM (inactive) | > 100 µM (inactive) | > 100 µM (inactive) | > 100 µM (inactive) | > 100 µM (inactive) | > 100 µM (inactive) |  |
| Cc1ccc([Se](=C(C(=O)c2ccccc2)C(=O)c2ccccc2)c2ccc(C)cc2)cc1 | 35.3 µM (inactive) | 12.7 µM (inactive) | 14.8 µM (inactive) | 22.3 µM (inactive) | 19.6 µM (inactive) | 23.4 µM (inactive) | 16.9 µM | 18.8 µM (inactive) | 48 µM (inactive) | 30.4 µM (inactive) | 22.1 µM (inactive) |  | 25.6 µM (inactive) | 26.4 µM (inactive) | 18.4 µM (inactive) | 17.5 µM (inactive) |  | 22.8 µM (inactive) | 37.8 µM (inactive) |
| Cn1c(N)nc2c(nc(OCc3ccccc3)n2C2OC(CO)C(O)C2O)c1=O (stereo not drawn) | > 100 µM (inactive) | > 100 µM (inactive) | > 100 µM (inactive) | > 100 µM (inactive) | > 100 µM (inactive) | > 100 µM (inactive) |  |  | > 100 µM (inactive) | > 100 µM (inactive) | > 100 µM (inactive) |  |  | > 100 µM (inactive) | > 100 µM (inactive) | > 100 µM (inactive) | > 100 µM (inactive) | > 100 µM (inactive) | > 100 µM (inactive) |
| COP(C)(=O)C(Cc1c[nH]c2ccccc12)NC(=O)OCc1ccccc1 (stereo not drawn) | > 100 µM (inactive) |  | > 100 µM (inactive) | > 100 µM (inactive) | > 100 µM (inactive) | > 100 µM (inactive) | > 100 µM | > 100 µM (inactive) | > 100 µM (inactive) | > 100 µM (inactive) |  | > 100 µM (inactive) | > 100 µM (inactive) | > 100 µM (inactive) | > 100 µM (inactive) | > 100 µM (inactive) | > 100 µM (inactive) | > 100 µM (inactive) |  |
| CN(C)CCCn1c(Cn2nc3ccccc3n2)nc2cc(C(F)(F)F)ccc21 | 42 µM (inactive) |  | 17.2 µM (inactive) | 44.1 µM (inactive) | 29 µM (inactive) | 24 µM (inactive) | 30.1 µM | 34 µM (inactive) | 64.4 µM (inactive) | 10.5 µM (inactive) | 14.6 µM (inactive) | 16.8 µM (inactive) |  | 30.4 µM (inactive) | 11.6 µM (inactive) | 16.8 µM (inactive) | 16.9 µM (inactive) | 36.2 µM (inactive) |  |
| O=C(NCCC(F)(F)C(F)(F)C(F)(F)C(F)(F)F)NC1OC(CO)C(O)C(O)C1O (stereo not drawn) | > 100 µM (inactive) | > 100 µM (inactive) |  | > 100 µM (inactive) | > 100 µM (inactive) | > 100 µM (inactive) | > 100 µM | > 100 µM (inactive) | > 100 µM (inactive) | > 100 µM (inactive) |  | > 100 µM (inactive) | > 100 µM (inactive) |  | > 100 µM (inactive) | > 100 µM (inactive) | > 100 µM (inactive) | > 100 µM (inactive) | > 100 µM (inactive) |
| CC1=C(C#N)S(=O)(=O)c2c(oc(C)c2C)N1 | > 100 µM (inactive) |  | > 100 µM (inactive) | > 100 µM (inactive) |  | > 100 µM (inactive) | > 100 µM | > 100 µM (inactive) | > 100 µM (inactive) | > 100 µM (inactive) | > 100 µM (inactive) | > 100 µM (inactive) | > 100 µM (inactive) | > 100 µM (inactive) | > 100 µM (inactive) | > 100 µM (inactive) | > 100 µM (inactive) | > 100 µM (inactive) | > 100 µM (inactive) |
| N#CCN(Cc1ccccc1)[C@@H]1CCC[C@]1(O)C#Cc1ccc2c(c1)OCO2 | 19.1 µM (inactive) | 17.8 µM (inactive) | 20.3 µM (inactive) | 19.8 µM (inactive) | 17.1 µM (inactive) | 21.1 µM (inactive) | 21.8 µM | 16.4 µM (inactive) | 16.2 µM (inactive) | 28.2 µM (inactive) | 16.1 µM (inactive) |  | 11.7 µM (inactive) | 16.7 µM (inactive) | 18.2 µM (inactive) | 18.8 µM (inactive) | 15.9 µM (inactive) | 14.1 µM (inactive) | 31 µM (inactive) |
| CCOC(=O)c1cc(=O)c2ccnc3c2n1CCS3 | > 100 µM (inactive) |  | > 100 µM (inactive) | > 100 µM (inactive) | 40.6 µM (inactive) | > 100 µM (inactive) | > 100 µM | 32.1 µM (inactive) | 48.5 µM (inactive) | 57.5 µM (inactive) | 22.7 µM (inactive) | 62.2 µM (inactive) | > 100 µM (inactive) | > 100 µM (inactive) |  | 51.6 µM (inactive) | 57.4 µM (inactive) | > 100 µM (inactive) | 8.3 µM (inactive) |
| CC(=O)Nc1cccc(N2C(=O)/C(=C\c3cccc(Oc4ccccc4)c3)S(=O)(=O)C2c2ccccc2)c1 (stereo not drawn) |  | 15.9 µM (inactive) | > 100 µM (inactive) | 46.5 µM (inactive) | 50.7 µM (inactive) | > 100 µM (inactive) | > 100 µM | 97.7 µM (inactive) | > 100 µM (inactive) | 33.1 µM (inactive) | 69 µM (inactive) | 69.8 µM (inactive) | 36 µM (inactive) | 37.1 µM (inactive) | > 100 µM (inactive) | > 100 µM (inactive) | 27.7 µM (inactive) |  | > 100 µM (inactive) |
| O=C(O)C1CCCCC1C(=O)Nn1cnnc1 (stereo not drawn) | > 100 µM (inactive) | > 100 µM (inactive) |  | > 100 µM (inactive) | > 100 µM (inactive) | > 100 µM (inactive) | > 100 µM | > 100 µM (inactive) | > 100 µM (inactive) | > 100 µM (inactive) | > 100 µM (inactive) | > 100 µM (inactive) | > 100 µM (inactive) | > 100 µM (inactive) |  | > 100 µM (inactive) | > 100 µM (inactive) |  | > 100 µM (inactive) |
| CNC(=O)c1ccccc1-[s+]1c2ccccc2c(=O)n1C (stereo not drawn) | > 100 µM (inactive) |  | > 100 µM (inactive) | > 100 µM (inactive) | > 100 µM (inactive) | > 100 µM (inactive) | > 100 µM | > 100 µM (inactive) | > 100 µM (inactive) | > 100 µM (inactive) | > 100 µM (inactive) | > 100 µM (inactive) | > 100 µM (inactive) | > 100 µM (inactive) | > 100 µM (inactive) | > 100 µM (inactive) | > 100 µM (inactive) | > 100 µM (inactive) |  |
| N#C/C(=C\c1cc(Br)c(O)c(Br)c1)c1cccnc1 | 33.4 µM (inactive) | 31.3 µM (inactive) |  | 18.5 µM (inactive) | 52.8 µM (inactive) | 27.4 µM (inactive) | 17.7 µM | 21 µM (inactive) | 32.8 µM (inactive) | 22.1 µM (inactive) | 30.6 µM (inactive) | 22.5 µM (inactive) | 26.2 µM (inactive) | 35.6 µM (inactive) | 17.2 µM (inactive) | 23.6 µM (inactive) |  |  | 75 µM (inactive) |
